# According to article PMC9635925, “Biological screening of a unique drug library targeting MRGPRX2” (Frontiers in Immunology, 2022):
# Positions count from the first letter of the chain named. Structures can show the parent of a compound that is named as a salt.
# Legend:
# [1] = biological target: T1, MRGPRX2-MUT (MRGPRX2 N62S mutation) (Homo sapiens, UniProt Q96LB1, N62S); test: Primary HTS, Ca2+ mobilization (fluorescence ratio, B-score) in HEK293-Gα15 cells stably expressing the MRGPRX2 N62S mutation; format: cell-based; conditions: for B-scores (MUT): 10 μM compound, MRGPRX2-MUT (N62S) cells; for Change of B-scores (%): 10 μM
# T1 construct: expressed in transfected cells
# T1 sequence (Q96LB1 1-330 N62S): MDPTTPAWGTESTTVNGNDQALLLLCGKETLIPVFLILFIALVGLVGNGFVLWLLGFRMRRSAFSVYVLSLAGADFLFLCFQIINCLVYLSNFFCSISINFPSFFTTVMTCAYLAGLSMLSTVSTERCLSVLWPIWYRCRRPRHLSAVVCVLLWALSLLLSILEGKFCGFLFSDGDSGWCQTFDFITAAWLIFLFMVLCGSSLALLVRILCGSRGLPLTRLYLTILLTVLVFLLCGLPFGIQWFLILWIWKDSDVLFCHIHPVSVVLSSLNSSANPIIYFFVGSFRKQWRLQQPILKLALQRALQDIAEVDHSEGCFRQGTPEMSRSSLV
# Experimental: (§1) We performed an experimental HTS on the Johns Hopkins Drug Library, which includes 1,811 (57%) FDA-approved drugs among 3,456 total compounds (28% of all known drugs worldwide) ([15]). We performed the HTS at the Johns Hopkins University ChemBioCORE Facility and employed HEK293-Gα15 cell lines that stably expressed MRGPRX2 protein.
# (§2) We utilized 10 μM compounds (each compound was tested in triplicate) and calculated the compound effect using the signal-to-background fluorescence ratio (see Supplementary Methods).
# (§3) In the HTS, we determined MRGPRX2 activation by a Ca^2+ mobilization assay that recorded a fluorescence change by utilizing a Functional Drug Screening System (FDSS 6000; Hamamatsu); we evaluated the compound effect using the calculated fluorescence ratio. We further applied the B-score normalization, which provided robust corrections for variation in fluorescence ratio ([22]).
# (§4) We performed an experimental high-throughput screening (HTS) on the Johns Hopkins Drug Library (JHDL), which includes 1,811 (57%) FDA-approved drugs among 3,456 total compounds (28% of all known drugs worldwide). The remaining compounds in JHDL are catalogued in one or more of the resources below: British Approved Names (BAN); Dénominations Communes Françaises (DCF); International Nonproprietary Names (INN); Japanese Adopted Names (JAN); MI (Merck Index); National Formulary drug name (NF); and United States Accepted Names (USAN). The JHU drug library is stocked in 96 well plates at 10 mM in 100% DMSO and stored at -80 °C. We used a final concentration of 10 uM for each compound and DMSO concentration of 0.1% (tested in triplicate). […] We evaluated compound effect using the calculated fluorescence ratio. We further calculated B-scores, which are a relative potency score similar to Z scores in that they are the ratio of an adjusted raw value in the numerator to a measure of variability in the denominator.
# [2] = biological target: T2, MRGPRX2-WT (wild-type MRGPRX2 receptor) (Homo sapiens, UniProt Q96LB1); test: Primary HTS, Ca2+ mobilization (fluorescence ratio, B-score) in HEK293-Gα15 cells stably expressing wild-type MRGPRX2; format: cell-based; conditions: 10 μM compound
# T2 construct: expressed in transfected cells
# T2 sequence (Q96LB1 1-330): T1 sequence (Q96LB1 1-330 N62S) with S62N
# Experimental: as §1, §2, §3, §4
# [3] = MRGPRX2-MUT in comparison to MRGPRX2-WT cells, Supplementary Table 1
# [4] = MRGPRX2-MUT in comparison to MRGPRX2-WT cells, Table 1
# [5] = Supplementary Table 2, listed as Isoprenaline
# [6] = MRGPRX2-MUT versus MRGPRX2-WT cells, Supplementary Table 2
# [7] = Supplementary Table 2, listed as Dextromethorphan (Delsym)
Compound,B-scores (MUT) ([1]; Supplementary Table 1),B-scores (MUT) ([1]; Table 1),"Change of B-scores (%) [1, 3]","Change of B-scores (%) [1, 4]",B-scores (WT) ([2]; Supplementary Table 1),B-scores (WT) ([2]; Table 1),B-scores (MUT) ([1]; Supplementary Table 2),"Change of B-scores (%) [1, 6]",B-scores (WT) ([2]; Supplementary Table 2),further results
CN1CCc2c(c3ccccc3n2Cc2ccccc2)C1.CN1CCc2c(c3ccccc3n2Cc2ccccc2)C1.O=S(=O)(O)c1cccc2c(S(=O)(=O)O)cccc12 [Mebhydrolin Naphthalenesulfonate],1.93,1.93,-92.39%,-92.39%,25.34,25.34,–,–,–,–
CC(C)NCC(O)c1ccc(O)c(O)c1 (stereo not shown) [Isoproterenol],6.75,–,-64.69%,–,19.12,–,–,–,–,"B-scores (MUT) [1, 5]: 6.75; Change of B-scores (%) ([1]; MRGPRX2-MUT versus MRGPRX2-WT cells, Supplementary Table 2, listed as Isoprenaline): -64.69%; B-scores (WT) [2, 5]: 19.12"
CN1CCCC(n2nc(Cc3ccc(Cl)cc3)c3ccccc3c2=O)CC1 (stereo not shown) [Azelastine Hydrochloride],3.47,3.47,-90.42%,-90.42%,36.21,36.21,–,–,–,–
CN(C)CCOC(c1ccc(Cl)cc1)c1ccccn1 (stereo not shown) [Carbinoxamine],–,–,–,–,–,–,0.12,-98.93%,11.13,–
CN(C)CCC=C1c2ccccc2COc2ccccc21 [Doxepin Hydrochloride],–,–,–,–,–,–,1.85,-85.71%,12.95,–
CN(C)CCCN1c2ccccc2Sc2ccc(Cl)cc21 [Chlorpromazine Hydrochloride],–,–,–,–,–,–,2.69,-66.27%,7.97,–
CCC(NC(C)C)C(O)c1ccc(O)c(O)c1 (stereo not shown) [Isoetharine Mesylate],0.60,–,-97.97%,–,29.54,–,–,–,–,–
NCCC(O)(P(=O)([O-])O)P(=O)([O-])O.[Na+].[Na+] [Pamidronate disodium],18.72,–,-37.79%,–,30.08,–,–,–,–,–
CC(C)CCCC(C)NC(C)C (stereo not shown) [Iproheptine],10.27,–,-61.42%,–,26.61,–,–,–,–,–
CN(C)CCCN1c2ccccc2CCc2ccc(Cl)cc21 [Clomipramine Hydrochloride],2.17,2.17,-92.83%,-92.83%,30.29,30.29,2.17,-92.83%,30.29,–
COc1ccc2c(c1)[C@]13CCCC[C@@H]1[C@H](C2)N(C)CC3 [Dextromethorphan hydrobromide],84.34,–,119.23%,–,38.47,–,54.88,138.39%,23.02,"B-scores (MUT) [1, 7]: 84.34; Change of B-scores (%) ([1]; MRGPRX2-MUT versus MRGPRX2-WT cells, Supplementary Table 2, listed as Dextromethorphan (Delsym)): 119.23%; B-scores (WT) [2, 7]: 38.47"
CC(Cc1ccc(O)cc1)NCC(O)c1cc(O)cc(O)c1 (stereo not shown) [Fenoterol],13.78,–,-41.33%,–,23.48,–,13.78,-41.33%,23.48,–
CN1[C@@H]2CC[C@H]1CC(OC(=O)[C@H](CO)c1ccccc1)C2.Cl (stereo partly shown) [Hyoscyamine Hydrochloride],–,–,–,–,–,–,0.69,-94.01%,11.54,–
CN1CCN(CC/C=C2/c3ccccc3Sc3ccc(S(=O)(=O)N(C)C)cc32)CC1 [Thiothixene],5.11,5.11,-74.90%,-74.90%,20.36,20.36,–,–,–,–
CC(C[N+](C)(C)C)OC(N)=O (stereo not shown) [Bethanechol Chloride],37.55,–,94.89%,–,19.27,–,–,–,–,–
CN1CCC(=C2c3ccccc3CC(=O)c3sccc32)CC1 [Ketotifen Fumarate],0.81,0.81,-96.52%,-96.52%,23.14,23.14,–,–,–,–
CCn1cc(C(=O)O)c(=O)c2cc(F)c(N3CCNCC3)cc21 [Norfloxacin],–,0.05,-99.81%,-99.81%,28.07,28.07,0.05,-99.81%,28.07,–
CC(C)(C)NCC(O)c1ccc(O)c(CO)c1.CC(C)(C)NCC(O)c1ccc(O)c(CO)c1.O=S(=O)(O)O (stereo not shown) [Albuterol sulfate],–,–,–,–,–,–,2.96,-75.51%,12.09,–
CC(Cc1ccc(O)cc1)NCC(O)c1cc(O)cc(O)c1 (stereo not shown) [Fenoterol Hydrobromide],–,–,-100.16%,–,20.31,–,-0.03,-100.16%,20.31,–
CN(C)CC[C@@H](c1ccc(Cl)cc1)c1ccccn1 [Dexchlorpheniramine Maleate],0.56,0.56,-97.76%,-97.76%,24.82,24.82,0.56,-97.76%,24.82,–
